Patent US20040268437A1, “Method for biosynthesizing the serotonin derivatives in plants” (CHONNAM NATIONAL UNIVERSITY, priority 2003, published 2004)

What was measured:
[1] = tested on: Rice plants (Variety: Nakdong); experiment: Soil treatment of rice with inducers; serotonin derivative content in seeds by HPLC; type: in vivo; conditions: for Content of serotonin derivatives: Coumaroyl Serotonin / Content of serotonin derivatives: Feruloyl serotonin / Content of serotonin derivatives: Total content: inducer 100 μM to soil, 300,000 L/ha, 20 days; for Rank of inducers by serotonin derivatives produced: in words
Experimental: Rice plants (Variety: Nakdong) having been cultivated in the rice field were treated with inducers for serotonin derivative biosynthesis and then biosynthesis of the serotonin derivatives was investigated.
(§1) Inducers for serotonin derivative biosynthesis were prepared by dissolving tyramine, tryptamine, cinnamic acid, coumaric acid, caffeic acid and ferulic acid (Sigma-Aldrich, Korea) in water respectively to make each concentration 100 μM. And then the soil where rice plants (about 40 days after heading) had been growing was treated once with each inducer for serotonin derivative biosynthesis at the rate of 300,000 L/ha, followed by further cultivation for 20 days.
As a control group, rice plant which had been cultivated under the same conditions except the treatment with inducers for serotonin derivative biosynthesis was used.
After harvesting rice, seeds of the rice were peeled to obtain brown rice. N-(hydroxycinnamoyl)-amines were extracted from 1 g of the brown rice by known method (Ishihara et al., Biosci. Biotechnol. Biochem. 64, 1025-1031, 2000), and then, HPLC was performed.
Coumaroylserotonin and feruloylserotonin included in the extract of seeds of rice, treated with inducers for serotonin derivative biosynthesis, were quantified by HPLC using a standard substance synthesized by a well-known method (Villegas & Brodelius, Physiol. Plant. 78, 414-420, 1990).

[2] = tested on: transgenic rice plants (T14) over-expressing THT; experiment: Soil treatment of transgenic rice T14 with inducers; serotonin derivative content in seeds; type: in vivo; conditions: for Content of serotonin derivative: Coumaroyl serotonin / Content of serotonin derivative: Feruloyl serotonin / Content of serotonin derivative: Total content: seeds of transgenic rice T14, inducer 100 μM to soil, 300,000 L/ha, 20 days
Experimental: Among T2 generations of transgenic rice plants, T14 was transplanted in the soil, to which inducers for serotonin derivative biosynthesis were treated. After cultivation, the contents of serotonin derivatives in seeds of the transgenic rice plants were investigated.
As inducers for serotonin derivative biosynthesis, tyramine, tryptamine, cinnamic acid, coumaric acid, caffeic acid and ferulic acid were used. Precisely, the inducers for serotonin derivative biosynthesis were dissolved in water, making each concentration 100 μM. Then, the solutions were added at the rate of 300,000 L/ha, to the soil where rice plants (about 40 days after heading) were growing. The plants were cultivated for 20 more days.
The seeds of the plants cultivated above were collected, and the content of serotonin derivatives in them was investigated with the same method as used in the Example <1-1>, which was compared with that in seeds of wild type control rice plants.

[3] = tested on: Hot pepper (Variety: Pungcheon); experiment: Soil treatment of hot pepper with inducers; serotonin derivative content in sarcocarps by HPLC; type: in vivo; conditions: for Content of serotonin derivatives: Coumaroyl Serotonin / Content of serotonin derivatives: Feruloyl serotonin / Content of serotonin derivatives: Total content: inducer 100 μM to soil, 300,000 L/ha, 20 days; for Rank of inducers by serotonin derivatives produced: in words
Experimental: Hot pepper (Variety: Pungcheon) was treated with inducers for serotonin derivative biosynthesis, followed by an examination of biosynthesis of serotonin derivatives.
as §1, with “Particularly, inducers” for “Inducers”, “acid” for “acid (Sigma-Aldrich, Korea)”
The ripe sarcocarps of hot peppers were obtained to investigate the content of serotonin derivatives by the same method as used in the above Example <1-1>. Control group hot pepper was cultivated under the same condition as the experimental group hot pepper except the treatment with inducers for serotonin derivative biosynthesis.

potato THT = conditions: cited from earlier work; for Use as amine substrate: potato THT
[4] = tested on: recombinant hot pepper THT; conditions: cited from earlier work
transgenic control rice = experiment: Transgenic control rice (pGA1611 vector without THT gene) grown in medium with tyramine; content in leaves and stems; type: in vivo; conditions: Transgenic control (TC); medium with 50 μM tyramine, 2 weeks
Experimental: In the meantime, transgenic control rice was prepared by transfecting rice plant with pGA1611 vector without hot pepper THT gene, and other preparation procedures for a control were the same as for an experimental group.
(§2) It was investigated whether serotonin derivatives was biosynthesized in transgenic rice plants over-expressing THT when cultivated in a medium supplemented with serotonin inducers, tyramine or coumaric acid. T2 generations of the transgenic rice seeds were sown on MS medium (Duchefa Biochemie, Netherlands) supplemented with 50 μM of tyramine or coumaric acid, substrates of hot pepper THT enzyme, which were then further cultured in a sterilized condition with 12 hour light and 12 hour dark cycle. 2 weeks later, hydroxycinnamoyl amines were extracted from leaves of T2 generations of transgenic rice plants and wild type control rice plants, respectively, according to the same procedure as used in the above Example <1-1>, then, HPLC was performed for analysis.

[5] = tested on: transgenic rice plants over-expressing THT; experiment: Transgenic rice grown in medium with tyramine or coumaric acid; content in leaves and stems; type: in vivo; conditions: for Coumaroyl serotonin / Feruloyl serotonin / Total content of serotonin derivatives: medium with 50 μM tyramine, 2 weeks
[6] = tested on: wild type control rice plants; experiment: Wild-type control rice grown in medium with tyramine; content in leaves and stems; type: in vivo; conditions: Wild-type control (W); medium with 50 μM tyramine, 2 weeks
Experimental: as §2

[7] = Mean of transgenic rice lines T9-T17

Structure (SMILES): O=C(O)/C=C/c1ccc(O)c(O)c1 [Caffeic acid, caffeic acid]
- Content of serotonin derivatives: Coumaroyl Serotonin [1]: 20 ng/1 g seed
- Content of serotonin derivatives: Feruloyl serotonin [1]: 23 ng/1 g seed
- Content of serotonin derivatives: Total content [1]: 43 ng/1 g seed
- Content of serotonin derivative: Coumaroyl serotonin [2]: 368 ng/g seeds
- Content of serotonin derivative: Feruloyl serotonin [2]: 430 ng/g seeds
- Content of serotonin derivative: Total content [2]: 798 ng/g seeds
- Content of serotonin derivatives: Coumaroyl Serotonin [3]: 138 ng/1 g sarcocarps
- Content of serotonin derivatives: Feruloyl serotonin [3]: 162 ng/1 g sarcocarps
- Content of serotonin derivatives: Total content [3]: 300 ng/1 g sarcocarps

Structure (SMILES): O=C(O)C=Cc1ccccc1 [Cinnamic acid, cinnamic acid]
- Rank of inducers by serotonin derivatives produced [1]: produced most
- Content of serotonin derivatives: Coumaroyl Serotonin [1]: 48 ng/1 g seed
- Content of serotonin derivatives: Feruloyl serotonin [1]: 76 ng/1 g seed
- Content of serotonin derivatives: Total content [1]: 124 ng/1 g seed
- Content of serotonin derivative: Coumaroyl serotonin [2]: 403 ng/g seeds
- Content of serotonin derivative: Feruloyl serotonin [2]: 406 ng/g seeds
- Content of serotonin derivative: Total content [2]: 809 ng/g seeds
- Rank of inducers by serotonin derivatives produced [3]: produced most
- Content of serotonin derivatives: Coumaroyl Serotonin [3]: 214 ng/1 g sarcocarps
- Content of serotonin derivatives: Feruloyl serotonin [3]: 276 ng/1 g sarcocarps
- Content of serotonin derivatives: Total content [3]: 490 ng/1 g sarcocarps

Structure (SMILES): NCCCCN [putricine]
- Use as amine substrate (potato THT): not used as a substrate

Structure (SMILES): NCCCCCN [cadaverin]
- Use as amine substrate (potato THT): not used as a substrate

Structure (SMILES): CC(C)(COP(=O)(O)OP(=O)(O)OC[C@H]1O[C@@H](n2cnc3c(N)ncnc32)[C@H](O)[C@@H]1OP(=O)(O)O)[C@@H](O)C(=O)NCCC(=O)NCCSC(=O)C=Cc1ccccc1 [cinnamoyl-CoA]
- Maximum reaction velocity (Vmax) relative to coumaroyl-CoA ([4]; hydroxycinnamic acid derivative substrates): 15 times

Structure (SMILES): COc1cc(/C=C/C(=O)O)ccc1O [Ferulic acid, ferulic acid]
- Rank of inducers by serotonin derivatives produced [1]: third most
- Content of serotonin derivatives: Coumaroyl Serotonin [1]: 33 ng/1 g seed
- Content of serotonin derivatives: Feruloyl serotonin [1]: 37 ng/1 g seed
- Content of serotonin derivatives: Total content [1]: 70 ng/1 g seed
- Content of serotonin derivative: Coumaroyl serotonin [2]: 313 ng/g seeds
- Content of serotonin derivative: Feruloyl serotonin [2]: 537 ng/g seeds
- Content of serotonin derivative: Total content [2]: 850 ng/g seeds
- Rank of inducers by serotonin derivatives produced [3]: second most
- Content of serotonin derivatives: Coumaroyl Serotonin [3]: 145 ng/1 g sarcocarps
- Content of serotonin derivatives: Feruloyl serotonin [3]: 230 ng/1 g sarcocarps
- Content of serotonin derivatives: Total content [3]: 375 ng/1 g sarcocarps

Structure (SMILES): NCCCNCCCCNCCCN [spermine]
- Use as amine substrate (potato THT): not used as a substrate

Structure (SMILES): NCCc1c[nH]c2ccccc12 [Tryptamine, tryptamine]
- Content of serotonin derivatives: Coumaroyl Serotonin [1]: 20 ng/1 g seed
- Content of serotonin derivatives: Feruloyl serotonin [1]: 28 ng/1 g seed
- Content of serotonin derivatives: Total content [1]: 48 ng/1 g seed
- Content of serotonin derivative: Coumaroyl serotonin [2]: 376 ng/g seeds
- Content of serotonin derivative: Feruloyl serotonin [2]: 382 ng/g seeds
- Content of serotonin derivative: Total content [2]: 758 ng/g seeds
- Use as amine substrate (potato THT): not used as a substrate
- Content of serotonin derivatives: Coumaroyl Serotonin [3]: 61 ng/1 g sarcocarps
- Content of serotonin derivatives: Feruloyl serotonin [3]: 79 ng/1 g sarcocarps
- Content of serotonin derivatives: Total content [3]: 140 ng/1 g sarcocarps

Structure (SMILES): N=C(N)NCCCCN [agmatine]
- Use as amine substrate (potato THT): not used as a substrate

Structure (SMILES): NCCc1ccc(O)cc1 [Tyramine, tyramine]
- Coumaroyl serotonin (transgenic control rice): 0 μg/g leaves and stems
- Feruloyl serotonin (transgenic control rice): 1 μg/g leaves and stems
- Total content of serotonin derivatives (transgenic control rice): 1 μg/g leaves and stems
- Rank of inducers by serotonin derivatives produced [1]: second most
- Content of serotonin derivatives: Coumaroyl Serotonin [1]: 19 ng/1 g seed
- Content of serotonin derivatives: Feruloyl serotonin [1]: 54 ng/1 g seed
- Content of serotonin derivatives: Total content [1]: 73 ng/1 g seed
- Coumaroyl serotonin [5, 7]: 78 μg/g leaves and stems
- Feruloyl serotonin [5, 7]: 96 μg/g leaves and stems
- Total content of serotonin derivatives [5, 7]: 174 μg/g leaves and stems
- Coumaroyl serotonin ([5]; Transgenic rice T9): 24 μg/g leaves and stems
- Feruloyl serotonin ([5]; Transgenic rice T9): 24 μg/g leaves and stems
- Total content of serotonin derivatives ([5]; Transgenic rice T9): 48 μg/g leaves and stems
- Coumaroyl serotonin ([5]; Transgenic rice T10): 86 μg/g leaves and stems
- Feruloyl serotonin ([5]; Transgenic rice T10): 114 μg/g leaves and stems
- Total content of serotonin derivatives ([5]; Transgenic rice T10): 200 μg/g leaves and stems
- Coumaroyl serotonin ([5]; Transgenic rice T13): 224 μg/g leaves and stems
- Feruloyl serotonin ([5]; Transgenic rice T13): 200 μg/g leaves and stems
- Total content of serotonin derivatives ([5]; Transgenic rice T13): 424 μg/g leaves and stems
- Coumaroyl serotonin ([5]; Transgenic rice T14): 46 μg/g leaves and stems
- Feruloyl serotonin ([5]; Transgenic rice T14): 78 μg/g leaves and stems
- Total content of serotonin derivatives ([5]; Transgenic rice T14): 124 μg/g leaves and stems
- Coumaroyl serotonin ([5]; Transgenic rice T16): 50 μg/g leaves and stems
- Feruloyl serotonin ([5]; Transgenic rice T16): 70 μg/g leaves and stems
- Total content of serotonin derivatives ([5]; Transgenic rice T16): 120 μg/g leaves and stems
- Coumaroyl serotonin ([5]; Transgenic rice T17): 36 μg/g leaves and stems
- Feruloyl serotonin ([5]; Transgenic rice T17): 92 μg/g leaves and stems
- Total content of serotonin derivatives ([5]; Transgenic rice T17): 128 μg/g leaves and stems
- Coumaroyltyramine and feruloyltyramine in the extract ([5]; transgenic rice in medium with 50 μM tyramine or coumaric acid, HPLC): neither coumaroyltyramine nor feruloyltyramine
- Maximum reaction velocity (Vmax) relative to octopamine ([4]; amine substrates): 1.5 fold
- Content of serotonin derivative: Coumaroyl serotonin [2]: 314 ng/g seeds
- Content of serotonin derivative: Feruloyl serotonin [2]: 684 ng/g seeds
- Content of serotonin derivative: Total content [2]: 998 ng/g seeds
- Rank of inducers by content of serotonin derivatives ([2]; seeds of transgenic rice plants, in words): the highest
- Coumaroyl serotonin [6]: 0 μg/g leaves and stems
- Feruloyl serotonin [6]: 1 μg/g leaves and stems
- Total content of serotonin derivatives [6]: 1 μg/g leaves and stems
- Increase of substrate specificity to tyramine (potato THT; coumaroyl-CoA used as a substrate instead of feruloyl-CoA): more than 10 times
- Rank of inducers by serotonin derivatives produced [3]: third most
- Content of serotonin derivatives: Coumaroyl Serotonin [3]: 150 ng/1 g sarcocarps
- Content of serotonin derivatives: Feruloyl serotonin [3]: 210 ng/1 g sarcocarps
- Content of serotonin derivatives: Total content [3]: 360 ng/1 g sarcocarps

Structure (SMILES): NCCCCNCCCN [spermidine]
- Use as amine substrate (potato THT): not used as a substrate

Structure (SMILES): O=C(O)/C=C/c1ccc(O)cc1 [Coumaric acid, coumaric acid]
- Content of serotonin derivatives: Coumaroyl Serotonin [1]: 15 ng/1 g seed
- Content of serotonin derivatives: Feruloyl serotonin [1]: 21 ng/1 g seed
- Content of serotonin derivatives: Total content [1]: 36 ng/1 g seed
- Content of serotonin derivative: Coumaroyl serotonin [2]: 325 ng/g seeds
- Content of serotonin derivative: Feruloyl serotonin [2]: 599 ng/g seeds
- Content of serotonin derivative: Total content [2]: 924 ng/g seeds
- Content of serotonin derivatives: Coumaroyl Serotonin [3]: 120 ng/1 g sarcocarps
- Content of serotonin derivatives: Feruloyl serotonin [3]: 170 ng/1 g sarcocarps
- Content of serotonin derivatives: Total content [3]: 290 ng/1 g sarcocarps
